Measurements taken from patent publication US6829540B1, “Drug discovery using multiple membrane mimetic affinities” (priority 1997, dated 2004).
Like-named read-outs stand apart in the source and are kept apart here.

What was measured:
[1] = HPLC membrane binding on immobilized artificial membrane IAM.PS; format: physicochemical; details: for Membrane affinity IAM.PS: Ln weighted, Table 3; for Membrane binding properties IAM.PS: Table 1
Method: (§1) The analysis is made by pattern matching membrane binding constants measured on immobilized artificial membrane columns in a high performance liquid chromatography system. Two or more immobilized artificial membrane chromatographic columns are used. Each test compound is injected and chromatographed on each column and the peak width and the peak time of the test compound is recorded and normalized to an internal or external standard. Thus experimentally measured selectivity values (αk′=k′/k′ standard) and normalized standard deviations (αsd=σ/σstandard) were calculated for both the test compounds and compounds of known biological properties. Pattern matching using vector calculus, multivariate analysis or principal component analysis of the αk′ and αsd values of the test compound and the control compounds allows comparison of the membrane binding properties of the test compounds and each of the control compounds or, if the control compounds all have a common biological activity/property, average or mean membrane binding values of the set of control compounds for each membrane surface.
(§2) Membrane binding constants (k′ values) are calculated in accordance with the formula k′=(tr−t0)/t0 wherein tr is the retention time and t0 is the dead time obtained from each injection; however, t0 in the denominator was obtained by averaging the experimentally determined t0 from all injections for each day the data are collected.
(§3) The use of chromatography on immobilized artificial membranes provides data characteristic of both equilibrium binding to the respective membrane mimetic surface (k′ values) and the kinetics of mass transfer between the immobilized artificial membrane surface and the mobile phase (i.e. δ values). […] This unavoidable variation in the experimentally determined k′ and δ values for each test compound and each control compound is eliminated, for pattern matching purposes, by normalizing k′ and δ values to an internal or external standard compound chromatographed on each immobilized artificial membrane column. Thus k′ and δ values for the test compounds are each divided by the respective k′ and δ values of the standard to calculate αk′ and αsd, the selectivity values and normalized standard deviations, respectively. For k′ values, α denotes the selectivity of the immobilized artificial membrane chromatographic surface for molecular recognition of the analyte; α is a thermodynamic property and corresponds to a ratio of membrane partition coefficients.
(§4) Thus, in one embodiment of this invention the membrane binding properties of six hallucinogens were measured on immobilized artificial membranes (IAMs) prepared from phosphatidylcholine (IAM.PC), phosphatidylserine (IAM.PS), phosphatidylethanolamine (IAM.PE), and sphingomyelin (IAM.SM). Mean vectors were calculated for several therapeutic classes of compounds. The calculated mean vector (i.e., the average vector representing a group of compounds with similar biological activity) is shown in Table 1 for hallucinogenic compounds.
(§5) In one embodiment of this invention membrane binding constants are measured by injecting the drugs into high performance liquid chromatographs (HPLC) using immobilized artificial membrane (IAM) columns using the following IAM stationary phases:
(§6) ^esterIAM.PC^C10/C3, ^esterIAM.PE^C10/C3, ^esterIAM.PS^C10/C3, and ^esterIAM.SM^C10/C3
(§7) The peak position of the drug in the chromatogram is a measure of the affinity of the compound for the immobilized membrane surface. The retention time (peak time) was used to calculate the capacity factor, k′, of the compound for the IAM surface. Capacity factors are proportional to equilibrium membrane binding constants K according to
(§8) Membrane binding data (numerical values relating to interaction with membranes or membrane mimetic surfaces) were obtained using HPLC chromatography on a multiplicity of membrane mimetic surfaces, preferably immobilized artificial membranes (IAMs). […]

[2] = HPLC membrane binding on immobilized artificial membrane IAM.SM; format: physicochemical; details: for Membrane affinity IAM.SM: Ln weighted, Table 3; for Membrane binding properties IAM.SM: Table 1
Method: as §1, §2, §3, §4, §5, §6, §7, §8

[3] = HPLC membrane binding on immobilized artificial membrane IAM.PC; format: physicochemical; details: for Membrane affinity IAM.PC: Ln weighted, Table 3; for Membrane binding properties IAM.PC: Table 1
Method: as §1, §2, §3, §4, §5, §6, §7, §8

[4] = HPLC membrane binding on immobilized artificial membrane IAM.PE; format: physicochemical; details: for Membrane affinity IAM.PE: Ln weighted, Table 3; for Membrane binding properties IAM.PE: Table 1
Method: as §1, §2, §3, §4, §5, §6, §7, §8

[5] = cited from earlier work
[6] = Table 6, low oral absorption training set
[7] = Table 9, compounds with low oral absorption
[8] = Table 7, compounds completely absorbed
[9] = Table 8, high oral absorption training set

COc1cc(CC(C)N)c(OC)cc1Br (stereo not drawn) [2,5-dimethoxy-4-bromoamphetamine]
Membrane affinity IAM.PS [1]: 4.68
Membrane binding properties IAM.PS [1]: 143.400
Membrane affinity IAM.SM [2]: 1.62
Membrane binding properties IAM.SM [2]: 20.970
Membrane affinity IAM.PC [3]: 2.07
Membrane binding properties IAM.PC [3]: 15.260
Membrane affinity IAM.PE [4]: 3.22
Membrane binding properties IAM.PE [4]: 20.950

COc1cc(C[C@@H](C)N)c(OC)cc1I [(R)-2,5-dimethoxy-4-iodoamphetamine]
Membrane binding properties IAM.PS [1]: 260.200
Membrane binding properties IAM.SM [2]: 53.41
Membrane binding properties IAM.PC [3]: 55.53
Membrane binding properties IAM.PE [4]: 29.76

COc1cc(CC(C)N)c(OC)cc1I (stereo not drawn) [DOI]
Membrane affinity IAM.PS [1]: 6.13
Membrane affinity IAM.SM [2]: 2.14
Membrane affinity IAM.PC [3]: 2.61
Membrane affinity IAM.PE [4]: 3.73

CC(N)Cc1ccc2c(c1)OCO2 (stereo not drawn) [MDA, 3,4-methylendioxyamphetamine]
Membrane affinity IAM.PS [1]: 3.28
Membrane affinity IAM.SM [2]: −0.0647
Membrane affinity IAM.PC [3]: 0.298
Membrane affinity IAM.PE [4]: 1.32

CCCC(=O)Nc1ccc(OCC(O)CNC(C)C)c(C(C)=O)c1 (stereo not drawn) [acebutolol]
Oral Absorption (%) [5, 6]: 37%
Oral Absorption (%) [5, 7]: 37%

C=CCc1ccccc1OCC(O)CNC(C)C (stereo not drawn) [alprenolol]
Oral Absorption (%) [5, 8]: 96%
Oral Absorption (%) [5, 9]: 96%

CNC1=Nc2ccc(Cl)cc2C(c2ccccc2)=[N+]([O-])C1 [chlorodiazepoxide, chlordiazepoxide]
Oral Absorption (%) [5, 8]: 100%
Oral Absorption (%) [5, 9]: 100%

CCOC(=O)C(C)(C)Oc1ccc(Cl)cc1 [clofibrate]
Oral Absorption (%) [5, 8]: 95%
Oral Absorption (%) [5, 9]: 95%

O=C1CN=C(c2ccccc2Cl)c2cc([N+](=O)[O-])ccc2N1 [clonazepam]
Oral Absorption (%) [5, 8]: 98%
Oral Absorption (%) [5, 9]: 98%

Clc1cccc(Cl)c1N=C1NCCN1 [clonidine]
Oral Absorption (%) [5, 8]: 95%
Oral Absorption (%) [5, 9]: 95%

C[C@]12C[C@H](O)[C@H]3[C@@H](CCC4=CC(=O)CC[C@@]43C)[C@@H]1CC[C@@H]2C(=O)CO [corticosterone]
Oral Absorption (%) [5, 8]: 100%
Oral Absorption (%) [5, 9]: 100%

COc1cc([C@@H]2c3cc4c(cc3[C@@H](O[C@@H]3O[C@@H]5CO[C@@H](C)O[C@H]5[C@H](O)[C@H]3O)[C@H]3COC(=O)[C@H]23)OCO4)cc(OC)c1O [etoposide]
Oral Absorption (%) [5, 6]: 50%
Oral Absorption (%) [5, 7]: 50%

CNC1(c2ccccc2Cl)CCCCC1=O (stereo not drawn) [ketamine]
Oral Absorption (%) [5, 6]: 20%
Oral Absorption (%) [5, 7]: 20%

COc1cc(CCN)cc(OC)c1OC [mescaline]
Membrane affinity IAM.PS [1]: 2.43
Membrane binding properties IAM.PS [1]: 12.280
Membrane affinity IAM.SM [2]: −0.715
Membrane binding properties IAM.SM [2]: 2.074
Membrane affinity IAM.PC [3]: −0.477
Membrane binding properties IAM.PC [3]: 1.476
Membrane affinity IAM.PE [4]: 0.670
Membrane binding properties IAM.PE [4]: 2.134

COc1cc(CCNC(C)=O)cc(OC)c1OC [n-acetylmescaline]
Membrane binding properties IAM.PS [1]: 0.736
Membrane binding properties IAM.SM [2]: 1.051
Membrane binding properties IAM.PC [3]: 0.706
Membrane binding properties IAM.PE [4]: 1.323

CC(N)Cc1ccc(I)cc1 (stereo not drawn) [p-iodoamphetamine]
Membrane binding properties IAM.PS [1]: 258.100
Membrane binding properties IAM.SM [2]: 32.410
Membrane binding properties IAM.PC [3]: 24.880
Membrane binding properties IAM.PE [4]: 33.660

CCC1(c2ccccc2)C(=O)NC(=O)NC1=O [phenobarbital]
Oral Absorption (%) [5, 8]: 100%
Oral Absorption (%) [5, 9]: 100%

O=C1NC(=O)C(c2ccccc2)(c2ccccc2)N1 [phenytoin]
Oral Absorption (%) [5, 8]: 100%
Oral Absorption (%) [5, 9]: 100%

CN(C)CCc1c[nH]c2cccc(O)c12 [psilocin]
Membrane affinity IAM.PS [1]: 2.80
Membrane binding properties IAM.PS [1]: 4.941
Membrane affinity IAM.SM [2]: 0.502
Membrane binding properties IAM.SM [2]: 7.532
Membrane affinity IAM.PC [3]: 0.900
Membrane binding properties IAM.PC [3]: 4.656
Membrane affinity IAM.PE [4]: 1.79
Membrane binding properties IAM.PE [4]: 4.818

CNC(=C[N+](=O)[O-])NCCSCc1ccc(CN(C)C)o1 [ranitidie, ranitidine]
Oral Absorption (%) [5, 6]: 50%
Oral Absorption (%) [5, 7]: 50%

CCN1CCCC1CNC(=O)c1cc(S(N)(=O)=O)ccc1OC (stereo not drawn) [sulpiride]
Oral Absorption (%) ([5]; in vivo, po): 36%
